# According to patent publication US8981111B2 (priority 2008, dated 2015):
# Assay: log P (HPLC/MS data of the preparation examples)
# Conditions: HPLC (LC-MS) method [b]: pH 2.7, 0.1% formic acid in water and acetonitrile, linear gradient 10% to 95% acetonitrile; EEC directive 79/831 Annex V.A8
row,SMILES,log p
1,CC(C)C(=O)Nc1cccc(CON=C(c2cccs2)c2nccn2C)n1 [Example 415],1.65^[b]
2,Cn1ncnc1C(=NOCc1cccc(N2C(=O)c3ccccc3C2=O)n1)c1cccs1 [Example 416],2.64^[b]
3,Cn1cncc1C(=NOCc1cccc(N2C(=O)c3ccccc3C2=O)n1)c1ccsc1 [Example 417],1.73^[b]
4,Cn1cncc1C(=NOCc1cccc(N2C(=O)c3ccccc3C2=O)n1)c1cccs1 [Example 420],1.66^[b]
5,Cn1cncc1C(=NOCc1csc(N)n1)c1cccs1 [Example 421],0.22^[b]
6,Cn1cncc1C(=NOCc1csc(N)n1)c1ccsc1 [Example 422],0.45^[b]

# Same assay, conditions: HPLC, method [a]: pH 2.3 with 0.1% phosphoric acid and acetonitrile as eluent
row,SMILES,log p
1,CC(C)CC(=O)Nc1cccc(CON=C(c2cccs2)c2ncnn2C)n1 [Example 396],2.78^[a];

# Same assay, conditions: LC-MS, method [b]: pH 2.7 with 0.1% formic acid in water and acetonitrile, linear gradient 10% to 95% acetonitrile
row,SMILES,log p
1,Cn1ccnc1C(=NOCc1cccc(NC(=O)OCCF)n1)c1cccc(F)c1 [Example 343],1.75^[b]
2,CCC(C)COC(=O)Nc1cccc(CON=C(c2cccc(F)c2)c2nccn2C)n1 (centres unmarked) [Example 344],2.82^[b]
3,CC(C)COC(=O)Nc1cccc(CON=C(c2cccc(F)c2)c2nccn2C)n1 [Example 345],2.51^[b]
4,CC(C)CCOC(=O)Nc1cccc(CON=C(c2cccc(F)c2)c2nccn2C)n1 [Example 346],2.82^[b]
5,Cn1ccnc1C(=NOCc1cccc(NC(=O)OCC(Cl)(Cl)Cl)n1)c1cccc(F)c1 [Example 347],2.73^[b]
6,CC(C)CCC(=O)Nc1cccc(CON=C(c2cccc(F)c2)c2nccn2C)n1 [Example 348],2.42^[b]
7,COC(C(=O)Nc1cccc(CON=C(c2cccc(F)c2)c2nccn2C)n1)c1ccccc1 (centres unmarked) [Example 349],2.42^[b]
8,"Cc1ncoc1C(=NOCc1csc(N)n1)c1ccccc1 [Example 351, 4-[({[(4-methyl-1,3-oxazol-5-yl)(phenyl)methylene]amino-}oxy)methyl]-1,3-thiazol-2-amine]",1.46^[b]
9,Cc1ncoc1C(=NOCc1cccc(N2C(=O)c3ccccc3C2=O)n1)c1ccccc1 [Example 353],3.09^[b]
10,CCCCC#Cc1cccc(CON=C(c2ccccc2)c2nncn2C)n1 [Example 354],3.23^[b]
11,COc1ccc(C(=NOCc2cccc(N3C(=O)c4ccccc4C3=O)n2)c2ncc(C(F)(F)F)cc2Cl)cc1Br [Example 356],4.78^[b]
12,COc1ccc(C(=NOCc2csc(N)n2)c2ncc(C(F)(F)F)cc2Cl)cc1Br [Example 357],2.8^[b]
13,COc1ccc(C(=NOCc2cccc(N)n2)c2ncc(C(F)(F)F)cc2Cl)cc1Br [Example 358],2.54^[b]
14,COc1ccc(C(=NOCc2cccc(NC(=O)C(C)(C)C)n2)c2ncc(C(F)(F)F)cc2Cl)cc1Br [Example 359],5.2^[b]
15,COc1ccc(C(=NOCc2cccc(NC(=O)C3CC3)n2)c2ncc(C(F)(F)F)cc2Cl)cc1Br [Example 360],4.54^[b]
16,COc1ccc(C(=NOCc2cccc(NC(=O)C(F)(F)F)n2)c2ncc(C(F)(F)F)cc2Cl)cc1Br [Example 361],4.97^[b]
17,COCCOCC(=O)Nc1cccc(CON=C(c2ccc(OC)c(Br)c2)c2ncc(C(F)(F)F)cc2Cl)n1 [Example 362],4.51^[b]
18,CCCCCOC(=O)Nc1cccc(CON=C(c2ccc(OC)c(Br)c2)c2ncc(C(F)(F)F)cc2Cl)n1 [Example 363],6.13^[b]
19,COc1ccc(C(=NOCc2cccc(NC(=O)c3ccccc3)n2)c2ncc(C(F)(F)F)cc2Cl)cc1Br [Example 364],5.23^[b]
20,COc1ccc(C(=NOCc2cccc(NC(=O)Cc3ccccc3)n2)c2ncc(C(F)(F)F)cc2Cl)cc1Br [Example 365],5.08^[b]
21,CCCCCCCCC(=O)Nc1cccc(CON=C(c2ccc(OC)c(Br)c2)c2ncc(C(F)(F)F)cc2Cl)n1 [Example 366],6.65^[b]
22,COc1ccc(C(=NOCc2cccc(NC(=O)C(C)C)n2)c2ncc(C(F)(F)F)cc2Cl)cc1Br [Example 367],4.73^[b]
23,CCCCCC(=O)Nc1cccc(CON=C(c2ccc(OC)c(Br)c2)c2ncc(C(F)(F)F)cc2Cl)n1 [Example 368],5.44^[b]

row,SMILES,log p
1,CCCCCCC(=O)Nc1cccc(CON=C(c2ccc(OC)c(Br)c2)c2ncc(C(F)(F)F)cc2Cl)n1 [Example 369],5.82^[b]
2,COc1ccc(C(=NOCc2cccc(NC(=O)CC(C)C)n2)c2ncc(C(F)(F)F)cc2Cl)cc1Br [Example 370],5.03^[b]
3,CCCCCOC(=O)Nc1nc(CON=C(c2ccc(OC)c(Br)c2)c2ncc(C(F)(F)F)cc2Cl)cs1 [Example 371],5.59^[b]
4,Cc1cnc(C)c(C(=NOCc2cccc(N3C(=O)c4ccccc4C3=O)n2)c2ccccc2)n1 [Example 372],3.35^[b]
5,Cc1cnc(C)c(C(=NOCc2cccc(N)n2)c2ccccc2)n1 [Example 373],1.31^[b]
6,CCCOC(=O)Nc1cccc(CON=C(c2ccccc2)c2nc(C)cnc2C)n1 [Example 374],3.81^[b]
7,CCCCCCOC(=O)Nc1cccc(CON=C(c2ccccc2)c2nc(C)cnc2C)n1 [Example 375],5.2^[b]
8,CCCCOC(=O)Nc1cccc(CON=C(c2ccccc2)c2nc(C)cnc2C)n1 [Example 376],4.29^[b]
9,CCCCCC(=O)Nc1cccc(CON=C(c2ccccc2)c2nc(C)cnc2C)n1 [Example 377],4.09^[b]
10,CCCCCOC(=O)Nc1cccc(CON=C(c2ccccc2)c2nc(C)cnc2C)n1 [Example 378],4.75^[b]
11,CCCCC(=O)Nc1cccc(CON=C(c2ccccc2)c2nc(C)cnc2C)n1 [Example 379],3.65^[b]
12,CCCCCCC(=O)Nc1cccc(CON=C(c2ccccc2)c2nc(C)cnc2C)n1 [Example 380],4.54^[b]
13,CCCC(=O)Nc1cccc(CON=C(c2ccccc2)c2nc(C)cnc2C)n1 [Example 381],3.21^[b]
14,Nc1ccnc(CON=C(c2ccsc2)c2snc(Cl)c2Cl)n1 [Example 382],1.86^[b]
15,Nc1nc(CON=C(c2ccsc2)c2snc(Cl)c2Cl)cs1 [Example 383],2.51^[b]
16,CC(C)(C)C(=O)Nc1ccnc(CON=C(c2ccsc2)c2snc(Cl)c2Cl)n1 [Example 384],4.67^[b]
17,Cn1ccnc1C(=NOCc1cccc(N2C(=O)c3ccccc3C2=O)n1)c1cccs1 [Example 385],1.78^[b]
18,CCCCCC(=O)Nc1ccnc(CON=C(c2cccs2)c2nccn2C)n1 [Example 388],1.93^[b]
19,CC(C)CC(=O)Nc1ccnc(CON=C(c2cccs2)c2nccn2C)n1 [Example 389],1.59^[b]
20,Cn1ccnc1C(=NOCc1nccc(NC(=O)C(C)(C)C)n1)c1cccs1 [Example 390],1.56^[b]
21,Cn1ncnc1C(=NOCc1cccc(N)n1)c1cccs1 [Example 391],0.82^[b]
22,Cn1ncnc1C(=NOCc1cccc(NC(=O)CCc2ccccc2)n1)c1cccs1 [Example 392],3.17^[b]
23,CCCCCC(=O)Nc1cccc(CON=C(c2cccs2)c2ncnn2C)n1 [Example 393],3.23^[b]

row,SMILES,log p
1,CCCCCOC(=O)Nc1cccc(CON=C(c2cccs2)c2ncnn2C)n1 [Example 394],3.82^[b]
2,Cn1ncnc1C(=NOCc1cccc(NC(=O)C(C)(C)C)n1)c1cccs1 [Example 395],2.82^[b]
3,CC(C)CC(=O)Nc1cccc(CON=C(c2cccs2)c2ncnn2C)n1 [Example 396],2.78^[b]
4,Cn1ncnc1C(=NOCc1nccc(N)n1)c1cccs1 [Example 397],0.47^[b]
5,Cn1ncnc1C(=NOCc1csc(N)n1)c1cccs1 [Example 398],0.92^[b]
6,CCCCCC(=O)Nc1nc(CON=C(c2cccs2)c2ncnn2C)cs1 [Example 399],3.23^[b]
7,CCCCCOC(=O)Nc1nc(CON=C(c2cccs2)c2ncnn2C)cs1 [Example 400],3.53^[b]
8,Cn1ncnc1C(=NOCc1csc(NC(=O)C(C)(C)C)n1)c1cccs1 [Example 401],2.8^[b]
9,Cn1ncnc1C(=NOCc1csc(NC(=O)Cc2ccccc2)n1)c1cccs1 [Example 402],2.82^[b]
10,Cn1ncnc1C(=NOCc1csc(NC(=O)CCc2ccccc2)n1)c1cccs1 [Example 403],3.09^[b]
11,CC(C)CC(=O)Nc1nc(CON=C(c2cccs2)c2ncnn2C)cs1 [Example 404],2.73^[b]
12,CCCCCC(=O)Nc1ccnc(CON=C(c2cccs2)c2ncnn2C)n1 [Example 405],3^[b]
13,CCCCCOC(=O)Nc1ccnc(CON=C(c2cccs2)c2ncnn2C)n1 [Example 406],3.31^[b]
14,Cn1ncnc1C(=NOCc1nccc(NC(=O)C(C)(C)C)n1)c1cccs1 [Example 407],2.59^[b]
15,Cn1ncnc1C(=NOCc1nccc(NC(=O)Cc2ccccc2)n1)c1cccs1 [Example 408],2.64^[b]
16,Cn1ncnc1C(=NOCc1nccc(NC(=O)CCc2ccccc2)n1)c1cccs1 [Example 409],2.9^[b]
17,CC(C)CC(=O)Nc1ccnc(CON=C(c2cccs2)c2ncnn2C)n1 [Example 410],2.56^[b]
18,CCCCCOC(=O)Nc1cccc(CON=C(c2cccs2)c2nccn2C)n1 [Example 411],2.71^[b]
19,CC(C)CC(=O)Nc1cccc(CON=C(c2cccs2)c2nccn2C)n1 [Example 412],1.91^[b]
20,Cn1ccnc1C(=NOCc1cccc(NC(=O)C(C)(C)C)n1)c1cccs1 [Example 413],1.78^[b]
21,Cn1ccnc1C(=NOCc1cccc(NC(=O)Cc2ccccc2)n1)c1cccs1 [Example 414],2.05^[b]

# Same assay, conditions: LC-MS, method [c]: pH 7.8 with 0.001 molar ammonium hydrogen carbonate solution in water, linear gradient 10% to 95% acetonitrile
row,SMILES,log p
1,Cn1ccnc1C(=NOCc1nccc(N)n1)c1cccs1 [Example 386],1.13^[c]
2,Cn1ccnc1C(=NOCc1cccc(N)n1)c1cccs1 [Example 387],1.74^[c]

# Same assay, conditions: reversed phase HPLC column, pH 2.7
row,SMILES,chromatographic logP
1,"Cc1ncoc1C(=NOCc1cccc(N2C(=O)c3ccccc3C2=O)n1)c1ccccc1 [Example 352, 2-{6-[({[(4-methyl-1,3-oxazol-5-yl)(phenyl)methylene]amino}oxy)methyl]pyridin-2-yl}-1H-isoindole-1,3(2H)-dione]",3.25
